Molecules are shown by their SMILES. Where only a bound is given, the exact number is not on record here.

The source of these data is ChEMBL document CHEMBL5727723, “(S)-5-ethynyl-anabasine, derivatives thereof, and related compositions and methods of making and using” (2020).

The assay is described as follows: functional assay: Nematode eggs are isolated from fresh feces by centrifugation and flotation. The eggs are washed and inspected to confirm embryonation has not started. Each sample is tested at six concentrations of a test compound (e.g., 0.02, 0.05, 0.1, 0.25, 0.5 and 1.0 μg/ml) and a negative control (no compound). After incubation for 48 h, the assay is ended, and all eggs and larvae present in each well are counted. The Hill equation with a variable slope is used to fit the dose-response relations using GraphPad Prism. The EC50-values and 95% confidence intervals are calculated.
Usually EC50 stands for the midpoint of the concentration-response curve. Turning to `CN1CCCCC1c1cccnc1` (centres undefined), the EC50 is less than 100 µM. Next, `CN1C(=O)CC[C@H]1c1cccnc1` [COTININE]: less than 100 µM; `CN1CCC[C@H]1c1ccc[n+](C)c1`: less than 100 µM; `CN1CCCC1c1ccc(N)nc1` (centres undefined): 12.2 µM.
